Test results as given in US8198419B2, “Glycorandomization and production of novel erythromycin analogs” (Wisconsin Alumni Research Foundation, priority 2001, dated 2012).
“Also recorded” adds a separate entry of the source. Read-outs that look alike come from different tables or passages of the source.

Experiments:
DNA = conditions: estimated; unit not given; cited from earlier work
GtfE = biological target: T1, GtfE (Amycolatopsis orientalis, UniProt Q9AFC6); assay: GtfE steady-state kinetics and transfer of NDP-glucose derivatives to heptapeptide aglycone; format: biochemical; conditions: for Km: NDP-sugar donor varied, acceptor vancomycin aglycone held at 1 mM; for Km / kcat: pH 9; for kcat: acceptor vancomycin aglycone 1 mM; for recognition / transfer of the sugar by GtfE: vancomycin and teicoplanin aglycone acceptors, HPLC and mass spectrometry; for catalytic efficiency relative to native substrate: vancomycin aglycone as acceptor
T1 construct: made in house; host or cells: Escherichia coli
T1 sequence (Q9AFC6 1-409): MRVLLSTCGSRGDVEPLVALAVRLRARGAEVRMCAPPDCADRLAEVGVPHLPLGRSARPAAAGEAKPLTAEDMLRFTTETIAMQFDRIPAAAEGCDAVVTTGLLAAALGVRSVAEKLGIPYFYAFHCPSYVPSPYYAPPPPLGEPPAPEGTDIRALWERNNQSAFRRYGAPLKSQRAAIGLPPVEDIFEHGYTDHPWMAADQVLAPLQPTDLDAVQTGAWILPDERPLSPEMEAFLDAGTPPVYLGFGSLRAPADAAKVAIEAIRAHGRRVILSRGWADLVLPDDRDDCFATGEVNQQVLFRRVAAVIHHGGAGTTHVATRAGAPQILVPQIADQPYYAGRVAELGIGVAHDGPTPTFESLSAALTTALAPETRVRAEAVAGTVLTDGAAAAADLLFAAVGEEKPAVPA
Procedure: (The acceptor substrate, the vancomycin aglycone, was held constant at 1 mM in each experiment.)
Biochemistry 2001; 40(15):4745-55; and Solenberg et al. Production of hybrid glycopeptide antibiotics in vitro and in Streptomyces toyocaensis. Chem Biol 1997; 4(3):195-202. Reactions were carried out and analyzed by HPLC as previously described. […] Each 100 μL reaction contained either 1 mM vancomycin aglycone or 0.5 mM teicoplanin aglycone. […] Reactions with GtfD also contained 2 mM UDP-L-4-epi-vancosamine. 50 μL time points were taken at 0 and 20 h, and quenched with 9 vol methanol. After centrifugation, the supernatants were dried and resuspended in water for HPLC analysis. All glycosylation reactions were monitored by UV (285 nm) using a Vydac C18 small pore column with a linear gradient of 0-20 percent acetonitrile in water with 0.1 percent trifluoracetic acid. The molecular weight of new products was analyzed by Maldi-TOF mass spectrometry using a Perseptive Biosystems Voyager-DE STR mass spectrometer.
All reactions were carried out with 1 mM vancomycin aglycone as the acceptor substrate. […] Each experiment was performed in duplicate or triplicate.

[1] = biological target: thymidylyltransferase (rmlA-encoded Ep) (Salmonella typhimurium, UniProt P26393); conditions: Lindquist et al. 1993, cited from earlier work
thymidylyltransferase (rmlA-encoded Ep), sequence (P26393 whole entry): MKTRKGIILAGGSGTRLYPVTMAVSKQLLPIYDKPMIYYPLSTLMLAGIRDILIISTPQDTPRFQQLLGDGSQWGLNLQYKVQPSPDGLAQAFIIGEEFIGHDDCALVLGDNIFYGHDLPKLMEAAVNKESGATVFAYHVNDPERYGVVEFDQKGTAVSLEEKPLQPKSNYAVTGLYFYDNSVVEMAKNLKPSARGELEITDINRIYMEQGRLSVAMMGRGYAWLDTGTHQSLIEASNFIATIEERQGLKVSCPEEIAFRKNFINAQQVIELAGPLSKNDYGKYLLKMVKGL

[2] = read-out: Km, forward direction

Row | Molecule | Km (GtfE) [µM] | kcat (GtfE) [s⁻¹] | other results
1 | CCN[C@H]1CO[C@@H](O[C@H]2[C@H](O[C@H]3C#CC=CC#C[C@@]4(O)CC(=O)C(NC(=O)OC)=C3/C4=C\CSSSC)O[C@H](C)[C@@H](NO[C@H]3C[C@H](O)[C@H](SC(=O)c4c(C)c(I)c(O[C@@H]5O[C@@H](C)[C@H](O)[C@@H](OC)[C@H]5O)c(OC)c4OC)[C@@H](C)O3)[C@@H]2O)C[C@@H]1OC (stereo in doubt) [calicheamicin, calicheamicin γ1^I] | – | – | affinity (DNA binding) (DNA): 10^6-10^8
2 | Cc1cn(C2CC(O)C(COP(=O)(O)OP(=O)(O)OC3OC(CO)C(O)C(N)C3O)O2)c(=O)[nH]c1=O [TDP-3-NH2-glucose, Thymidine 5′-(3-amino-3-deoxy-α-D-glucopyranosyl diphosphate)] | 720 ± 60 | 0.06 ± 0.0033 | –
3 | Cc1cn([C@H]2C[C@H](O)[C@@H](COP(=O)(O)OP(=O)(O)O[C@H]3O[C@H](CO)[C@@H](N)[C@H](O)[C@H]3O)O2)c(=O)[nH]c1=O [TDP-4-NH2-glucose, Thymidine 5′-(4-amino-4-deoxy-α-D-glucopyranosyl diphosphate)] | 1100 ± 100 | 0.0217 ± 0.0017 | –
4 | Cc1cn([C@H]2C[C@H](O)[C@@H](COP(=O)(O)OP(=O)(O)O[C@H]3O[C@H](CO)[C@@H](O)[C@H](O)[C@H]3O)O2)c(=O)[nH]c1=O [TDP-glucose, Thymidine 5′-(α-D-glucopyranosyl diphosphate), reference compound] | 620 ± 90 | 0.483 ± 0.033 | Km ([1]; read-out: Km, reverse reaction): 83 µM
5 | NC1C(OP(=O)(O)OP(=O)(O)OCC2OC(n3ccc(=O)[nH]c3=O)C(O)C2O)OC(CO)C(O)C1O [UDP-2-NH2-glucose, Uridine 5′-(2-amino-2-deoxy-α-D-glucopyranosyl diphosphate)] | 790 ± 80 | 0.045 ± 0.0033 | –
6 | [N-]=[N+]=NC1C(OP(=O)(O)OP(=O)(O)OCC2OC(n3ccc(=O)[nH]c3=O)C(O)C2O)OC(CO)C(O)C1O (centres unmarked) [UDP-2-azido-glucose] | – | – | recognition / transfer of the sugar by GtfE (GtfE): inadequate for transfer
7 | O=c1ccn(C2OC(COP(=O)(O)OP(=O)(O)OC3OC(CO)C(O)C(O)C3F)C(O)C2O)c(=O)[nH]1 (centres unmarked) [UDP-2-fluoro-glucose] | – | – | recognition / transfer of the sugar by GtfE (GtfE): inadequate for transfer; also recorded: not recognized
8 | O=c1ccn([C@@H]2O[C@H](COP(=O)(O)OP(=O)(O)O[C@H]3O[C@H](CCl)[C@@H](O)[C@H](O)[C@H]3O)[C@@H](O)[C@H]2O)c(=O)[nH]1 [UDP-6-Cl-glucose, UDP-6-chloro-glucose] | 21000 ± 6000 | 0.005 ± 0.0017 | catalytic efficiency relative to native substrate (GtfE): less than 0.1%
9 | NC[C@H]1O[C@H](OP(=O)(O)OP(=O)(O)OC[C@H]2O[C@@H](n3ccc(=O)[nH]c3=O)[C@H](O)[C@@H]2O)[C@H](O)[C@@H](O)[C@@H]1O [UDP-6-NH2-glucose, Uridine 5′-(6-amino-6-deoxy-α-D-glucopyranosyl diphosphate)] | 1200 ± 200 | 0.025 ± 0.0033 | –
10 | [N-]=[N+]=NCC1OC(OP(=O)(O)OP(=O)(O)OC[C@H]2O[C@@H](n3ccc(=O)[nH]c3=O)[C@H](O)[C@@H]2O)C(O)C(O)C1O (some centres unmarked) [UDP-6-azido-glucose] | – | – | recognition / transfer of the sugar by GtfE (GtfE): inadequate for transfer
11 | O=C[C@H](O)[C@@H](O)[C@H](O)CO [UDP-xylose, UDP xylose, reference compound] | – | – | catalytic efficiency relative to native substrate (GtfE): about 10%
12 | Cc1cn([C@H]2C[C@H](O)[C@@H](COP(=O)(O)OP(=O)(O)OP(=O)(O)O)O2)c(=O)[nH]c1=O [dTTP] | – | – | Km [1, 2]: 20 µM
13 | O=P(O)(O)OP(=O)(O)O [diphosphate] | – | – | Km ([1]; read-out: Km, reverse reaction): 150 µM
14 | O=P(O)(O)O[C@H]1O[C@H](CO)[C@@H](O)[C@H](O)[C@H]1O [α-D-glucose-1-phosphate] | – | – | Km [1, 2]: 110 µM
15 | TDP-2-fluoro-glucose | – | – | recognition / transfer of the sugar by GtfE (GtfE): not detectably processed
